Laboratory results: patent US20130116231A1, “TYROSINE KINASE INHIBITORS” (Merck Sharp & Dohme Corp., priority 2010, published 2013)

biological target: T1, human c-Met (Homo sapiens, UniProt P08581); experiment: in vitro kinase assay (homogeneous time-resolved tyrosine kinase assay, METKA); assay type: biochemical; details: recombinant GST-tagged c-Met cytosolic domain, HTRF, 50 μM MgATP; read-out: Biological Activity (METKA IC50) Activity Code
T1 construct: Recombinant GST-tagged cytosolic domains of human c-Met; 6xHis; made in house; host or cells: Sf9 or Sf21 insect cells (baculovirus)
T1 sequence (P08581 956-1390 limits assumed): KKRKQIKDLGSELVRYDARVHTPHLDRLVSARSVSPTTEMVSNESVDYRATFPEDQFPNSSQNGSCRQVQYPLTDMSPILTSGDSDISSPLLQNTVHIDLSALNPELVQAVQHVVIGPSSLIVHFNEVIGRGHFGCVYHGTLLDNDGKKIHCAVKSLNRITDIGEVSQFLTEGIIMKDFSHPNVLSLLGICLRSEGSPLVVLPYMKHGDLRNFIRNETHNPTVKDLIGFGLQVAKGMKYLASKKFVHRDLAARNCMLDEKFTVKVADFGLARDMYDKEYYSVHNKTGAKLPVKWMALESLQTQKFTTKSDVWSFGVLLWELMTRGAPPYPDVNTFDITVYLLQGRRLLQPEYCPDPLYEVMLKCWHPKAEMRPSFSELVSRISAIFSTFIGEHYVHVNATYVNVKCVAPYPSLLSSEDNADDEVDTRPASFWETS
Text: Recombinant GST-tagged cytosolic domains of human c-Met and other receptor tyrosine kinases including mouse c-Met, human Ron, KDR, IGFR, EGFR, FGFR, Mer, TrkA and Tie2 are used to determine whether the compounds of the instant invention modulate the enzymatic activities of these kinases.
Soluble recombinant GST-tagged cytosolic domains of c-Met and other receptor tyrosine kinases are expressed in a baculovirus system (Pharmingen) according to a protocol recommended by the manufacturer. The c-DNA encoding each cytosolic domain is subcloned into a baculovirus expression vector (pGcGHLT-A, B or C, Pharmingen) containing an in frame 6× histidine tag and a GST tag. The resulting plasmid construct and BaculoGold baculovirus DNA (Pharmingen) are used to co-transfect Sf9 or Sf21 insect cells. After confirming expression of GST-tagged kinase fusion, a high titer recombinant baculovirus stock is produced, expression conditions are optimized, and a scaled up expression of rat KDR-GST fusion is performed. The fusion kinase is then purified from the insect cell lysate by affinity chromatography using glutathione agarose (Pharmingen). The purified protein is dialyzed against 50% glycerol, 2 mM DTT, 50 mM Tris-HCl (pH 7.4) and stored at −20° C. The protein concentrations of the fusion proteins are determined using Coomassie Plus Protein Assay (Pierce) with BSA as standard.
The kinase activities of c-Met and other kinases are measured using a modified version of the homogeneous time-resolved tyrosine kinase assay described by Park et al. (1999, Anal. Biochem. 269:94-104).
The procedure for determining the potency of a compound to inhibit c-Met kinase comprises the following steps: • 1. Prepare 3-fold serial diluted compound solutions in 100% dimethyl sulfoxide (DMSO) at 20× of the desired final concentrations in a 96 well plate. • 2. Prepare a master reaction mix containing 6.67 mM MgCl2, 133.3 mM NaCl, 66.7 mM Tris-HCl (pH 7.4), 0.13 mg/ml BSA, 2.67 mM dithiothreitol, 0.27 nM recombinant c-Met and 666.7 nM biotinylated synthetic peptide substrate (biotin-ahx-EQEDEPEGDYFEWLE-CONH2) (SEQ.ID.NO.:1). • 3. In a black assay plate, add 2.5 μl of compound solution (or DMSO) and 37.5 μl of master reaction mix per well. Initiate the kinase reaction by adding 10 μl of 0.25 mM MgATP per well. Allow the reactions to proceed for 80 min at room temperature. The final conditions for the reaction are 0.2 nM c-Met, 0.5 μM substrate, 50 μM MgATP, […], 100 mM NaCl, 2 mM DTT, 0.1 mg/ml BSA, 50 mM Tris (pH 7.4) and 5% DMSO. • 4. Stop the kinase reaction with 50 μl of Stop/Detection buffer containing 10 mM EDTA, 25 mM HEPES, 0.1% TRITON X-100, 0.126 μg/ml Eu-chelate labeled anti-phosphotyrosine antibody PY20 (cat. #AD0067, PerkinElmer) and 45 μg/ml Streptavidin-allophycocyanin conjugate (cat. #PJ25S, Prozyme). • 5. Read HTRF signals on a Victor reader (PerkinElmer) in HTRF mode after 60 min. • 6. IC50 is determined by fitting the observed relationship between compound concentration and HTRF signal with a 4-parameter logistic equation. Essentially the same procedure was used to determine the potency of compounds to inhibit mouse c-Met, human Ron, KDR, IGFR, EGFR, FGFR, Mer, TrkA and Tie2 except that the concentration of enzyme varied in individual assays (0.2 nM mouse c-Met; 2.5 nM Ron, 8 nM KDR; 0.24 nM IGFR; 0.24 nM EGFR; 0.14 nM FGFR; 16 nM Mer; 8 nM TrkA; 8 nM Tie2).

SMILES | IC50
Cn1cc(-n2ccc(=O)c(COc3ccc4[nH]c(-c5ccccc5)nc4c3)n2)cn1 [Example 19, 1-(1-methyl-1H-pyrazol-4-yl)-3-{[(2-phenyl-1H-benzimidazol-5-yl)oxy]methyl}pyridazin-4(1H)-one] | < 100 nM
O=c1ccn(-c2cccc(Br)c2)nc1COc1ccc2ncccc2c1 [Example 20, 1-(3-Bromophenyl)-3-[(quinolin-6-yloxy)methyl]pyridazin-4(1H)-one] | < 100 nM
O=c1ccn(-c2cncc(Br)c2)nc1COc1ccc2ncccc2c1 [Example 21, 1-(5-bromopyridin-3-yl)-3-[(quinolin-6-yloxy)methyl] pyridazin-4(1H)-one] | < 100 nM
CCn1cc(-n2ccc(=O)c(COc3ccc4ncccc4c3)n2)cn1 [Example 22, 1-(1-ethyl-1H-pyrazol-4-yl)-3-[(quinolin-6-yloxy)methyl] pyridazin-1(4H)-one] | < 100 nM
CCOc1cnc2ccc(OCc3nn(-c4cnn(C)c4)ccc3=O)cc2c1 [Example 23, 3-{[(3-Ethoxyquinolin-6-yl)oxy]methyl}-1-(1-methyl-1H-pyrazol-4-yl)pyridazin-4(1H)-one] | < 100 nM
COCCOc1cnc2ccc(OCc3nn(-c4cnn(C)c4)ccc3=O)cc2c1 [Example 24, 3-({[3-(2-methoxyethoxy)quinolin-6-yl]oxy}methyl)-1-(1-methyl-1H-pyrazol-4-yl)pyridazin-4(1H)-one] | < 100 nM
Cn1cc(-n2ccc(=O)c(COc3ccc4ncc(OCC5CCOC5)cc4c3)n2)cn1 (centres unmarked) [Example 25, 1-(1-methyl-1H-pyrazol-4-yl)-3-({[3-(tetrahydrofuran-3-ylmethoxy)quinolin-6-yl]oxy}methyl)pyridazin-4(1H)-one] | < 100 nM
Cn1cc(-n2ccc(=O)c(COc3ccc4ncc(OCC5(C)COC5)cc4c3)n2)cn1 [Example 26, 3-[({3-[(3-methyloxetan-3-yl)methoxy]quinolin-6-yl}oxy)methyl]-1-(1-methyl-1H-pyrazol-4-yl)pyridazin-4(1H)-one] | < 100 nM
Cn1cc(-n2ccc(=O)c(COc3ccc4ncncc4c3)n2)cn1 [Example 27, 1-(1-methyl-1H-pyrazol-4-yl)-3-[(quinazolin-6-yloxy)methyl]pyridazin-4(1H)-one] | 100 to 1000 nM
COCCOc1cnc2ccc(OCc3nn(-c4cc(F)cc(C#N)c4)ccc3=O)cc2c1 [Example 28, 3-fluoro-5-[3-({[3-(2-methoxyethoxy)quinolin-6-yl]oxy}methyl)-4-oxopyridazin-1(4H)-yl]benzonitrile] | < 100 nM
COCCOc1cnc2ccc(OCc3nn(-c4cc(Cl)cc(C#N)c4)ccc3=O)cc2c1 [Example 29, 3-chloro-5-[3-({[3-(2-methoxyethoxy)quinolin-6-yl]oxy}methyl)-4-oxopyridazin-1(4H)-yl]benzonitrile] | < 100 nM
COCCOc1cnc2ccc(OCc3nn(-c4ccc(F)c(F)c4)ccc3=O)cc2c1 [Example 30, 1-(3,4-difluorophenyl)-3-({[3-(2-methoxyethoxy)quinolin-6-yl]oxy}methyl)pyridazin-4(1H)-one] | < 100 nM
COCCOc1cnc2ccc(OCc3nn(-c4cc(F)cc(F)c4)ccc3=O)cc2c1 [Example 31, 1-(3,5-difluorophenyl)-3-({[3-(2-methoxyethoxy)quinolin-6-yl]oxy}methyl)pyridazin-4(1H)-one] | < 100 nM
Cn1cc(-n2ccc(=O)c(COc3cc(F)c4ncccc4c3)n2)cn1 [Example 32, 3-{[(8-fluoroquinolin-6-yl)oxy]methyl}-1-(1-methyl-1H-pyrazol-4-yl)pyridazin-4(1H)-one] | 1000 to 3000 nM
CCOCCOc1ccnc2ccc(OCc3nn(-c4cnn(C)c4)ccc3=O)cc12 [Example 33, 3-({[4-(2-ethoxyethoxy)quinolin-6-yl]oxy}methyl)-1-(1-methyl-1H-pyrazol-4-yl)pyridazin-4(1H)-one] | 100 to 1000 nM
COCCOc1ccnc2ccc(OCc3nn(-c4cnn(C)c4)ccc3=O)cc12 [Example 34, 3-({[4-(2-methoxyethoxy)quinolin-6-yl]oxy}methyl)-1-(1-methyl-1H-pyrazol-4-yl)pyridazin-4(1H)-one] | 100 to 1000 nM
COc1cnc2ccc(OCc3nn(-c4cnn(C)c4)ccc3=O)cc2c1 [Example 35, 3-{[(3-methoxyquinolin-6-yl)oxy]methyl}-1-(1-methyl-1H-pyrazol-4-yl)pyridazin-4(1H)-one] | < 100 nM
CCn1cc(-n2ccc(=O)c(COc3ccc4ncc(OCCOC)cc4c3)n2)cn1 [Example 36, 1-(1-ethyl-1H-pyrazol-4-yl)-3-({[3-(2-methoxyethoxy)quinolin-6-yl]oxy}methyl)pyridazin-4(1H)-one] | < 100 nM
Cn1cc(-n2ccc(=O)c(COc3ccc4ncc(F)cc4c3)n2)cn1 [Example 37, 3-{[(3-fluoroquinolin-6-yl)oxy]methyl}-1-(1-methyl-1H-pyrazol-4-yl)pyridazin-4(1H)-one] | < 100 nM
COCCOc1cnc2ccc(OCc3nn(-c4cccc(Br)c4)ccc3=O)cc2c1 [Example 38, 1-(3-bromophenyl)-3-({[3-(2-methoxyethoxy)quinolin-6-yl]oxy}methyl)pyridazin-4(1H)-one] | < 100 nM
Cn1cc(-n2ccc(=O)c(COc3ccc4ncc(-n5cnnc5)cc4c3)n2)cn1 [Example 39, 1-(1-methyl-1H-pyrazol-4-yl)-3-({[3-(4H-1,2,4-triazol-4-yl)quinolin-6-yl]oxy}methyl)pyridazin-4(1H)-one] | 100 to 1000 nM
COCc1cn(-c2cnc3ccc(OCc4nn(-c5cnn(C)c5)ccc4=O)cc3c2)nn1 [Example 40, 3-[({3-[4-(methoxymethyl)-1H-1,2,3-triazol-1-yl]quinolin-6-yl}oxy)methyl]-1-(1-methyl-1H-pyrazol-4-yl)pyridazin-4(1H)-one] | < 100 nM
Cn1cc(-n2ccc(=O)c(COc3ccc4ncc(-n5cc(COC6CCNCC6)nn5)cc4c3)n2)cn1 [Example 41, 1-(1-methyl-1H-pyrazol-4-yl)-3-{[(3-{4-[(piperidin-4-yloxy)methyl]-1H-1,2,3-triazol-1-yl}quinolin-6-yl)oxy]methyl}pyridazin-4(1H)-one] | 100 to 1000 nM
Cn1cc(-n2ccc(=O)c(COc3ccc4ncc(-n5ccnn5)cc4c3)n2)cn1 [Example 42, 1-(1-Methyl-1H-pyrazol-4-yl)-3-({[3-(1H-1,2,3-triazol-1-yl)quinolin-6-yl]oxy}methyl)pyridazin-4(1H)-one] | < 100 nM
CCOc1ccnc2ccc(OCc3nn(-c4cnn(C)c4)ccc3=O)cc12 [Example 43, 3-{[(4-Ethoxyquinolin-6-yl)oxy]methyl}-1-(1-methyl-1H-pyrazol-4-yl)pyridazin-4(1H)-one] | < 100 nM
CCOc1cnc2ccc(OCc3nn(-c4cc(F)cc(C#N)c4)ccc3=O)cc2c1 [Example 44, 3-[3-{[(3-ethoxyquinolin-6-yl)oxy]methyl}-4-oxopyridazin-1(4H)-yl]-5-fluorobenzonitrile] | < 100 nM
CCOc1cnc2ccc(OCc3nn(-c4cc(Cl)cc(C#N)c4)ccc3=O)cc2c1 [Example 45, 3-chloro-5-[3-{[(3-ethoxyquinolin-6-yl)oxy]methyl}-4-oxopyridazin-1(4H)-yl]benzonitrile] | < 100 nM
CCOc1cnc2ccc(OCc3nn(-c4ccc(F)c(F)c4)ccc3=O)cc2c1 [Example 46, 1-(3,4-difluorophenyl)-3-{[(3-ethoxyquinolin-6-yl)oxy]methyl}pyridazin-4(1H)-one] | < 100 nM
CCOc1cnc2ccc(OCc3nn(-c4cc(F)cc(F)c4)ccc3=O)cc2c1 [Example 47, 1-(3,5-difluorophenyl)-3-{[(3-ethoxyquinolin-6-yl)oxy]methyl}pyridazin-4(1H)-one] | < 100 nM
